In PMC8621413, “New Antifungal Compound: Impact of Cosolvency, Micellization and Complexation on Solubility and Permeability Processes” (Pharmaceutics, 2021):
Converted amounts (≈) assume the structure as drawn. “And” between values parts separate entries of the source, which are not always exact repeats. Identical values can stand only once. Like-named read-outs stand apart in the source and are kept apart here.

Legend:
[1] = design: method as in doi:10.1016/j.molliq.2021.116535; conditions: cited from earlier work
[2] = In vitro permeability, Franz diffusion cell, regenerated cellulose membrane; type: in vitro ADME; conditions: for Papp at 5 h: read-out: Papp, Cellulose Membrane (RC)
Procedure: (§1) Permeability experiments were performed using the reverse dialysis set-up adapted to the Franz diffusion cell (PermeGear, Inc., Hellertown, PA, USA). This method was successfully applied by di Cagno et al. for the permeability evaluation of a whole set of diverse drugs. The donor solution of the investigated compound was placed in the lower chamber. The membrane was mounted between the donor and acceptor chambers. At the start of the experiment, the upper (acceptor) compartment was filled with the respective pure buffer. The donor solution was stirred with a magnetic stirrer bar. The samples of 0.5 mL were withdrawn from the receptor solution each 30 min over 5 h and replaced with the same volume of pure buffer. The volume of the donor solution in the lower compartment was 7 mL and the receptor volume was 1 mL. A schematic diagram of the equipment is illustrated in Figure 2.
(§2) Two types of barriers were applied for the permeability evaluation: the regenerated cellulose membrane (RC) with a molecular weight cut off MWCO 12–14 kDa (Standard Grade RC Dialysis Membrane, Flat Width 45 mm) and the PermeaPad (PP) barrier (PHABIOC, Germany, www.permeapad.com, accessed on 20 May 2021). The PermeaPad barrier was used as received from the supplier. The cellulose membrane was pretreated with distilled water for 30 min and the traces of water were removed with filter paper before use. The membrane effective surface area was 0.785 cm^2. Buffer solution pH 2.0 was applied throughout the experiment due to impossibility of the drug detection in the receptor solution at pH 7.4, where S-119 solubility is extremely low. […] The temperature of the system was maintained at 37.0 ± 0.1 °C. The concentrations of the sample solutions were measured using spectrophotometer (Spectramax 190; Molecular devices, Molecular Devices Corporation, California, CA, USA) in 96-well UV black plates (Costar) at λ = 261 nm. The permeation plots were constructed as the amount of the permeated drug over the surface area (dQ/A) versus time (t). Flux (J) was calculated as a slope of permeation plots by the equation:(2) J=dQ/A×dt
(§3) The slope (J) normalized by the concentration of the drug in the donor compartment (C0) represents the apparent permeability coefficient (Papp):(3) Papp=J/C0
(§4) The average value of Papp from at least 3 experiments was taken into consideration.

[3] = Complexation with HP-β-CD (phase solubility, Higuchi and Connors); type: physicochemical; conditions: for Gibbs free energy of complexation (ΔGC0) / Stability constant (KS) / Complexation efficiency (CE): 25 °C; for Stability constant (KS): S-119/HP-β-CD complex; for Complexation efficiency (CE): S-119/HP-β-CD
Procedure: (§5) Excess amounts of S-119 were added to buffered aqueous solutions containing increasing concentrations of excipients.
(§6) In order to analyze the information on solubilization, micelle formation and complexation obtained in the present study, the standard Gibbs energy (at 25 °C) of the outlined processes was calculated by the following equations:(7) ΔGS0(Cexc)=−RTlnS2/S20, where ΔGS0(Cexc) —the standard free energy of solubilization—transferring a compound from the aqueous buffer solution to the excipient solution of a defined concentration (Cexc), S20 and S2 —the solubility of a drug in pure buffer and at a defined excipient concentration, respectively; R is the universal gas constant; T is the standard temperature of 25 °C (8) ΔGC^0=−RTlnKs where ΔGC0 is the change of the complexation Gibbs energy, KS is the stability constant of the complexation reaction (9) ΔGm/w0=−RTlnKm/w where ΔGm/w0 is the standard Gibbs energy of the partition between the micelle and water phases, Km/w is the partition coefficient.

[4] = Complexation with β-CD (phase solubility, Higuchi and Connors); type: physicochemical; conditions: for Stability constant (KS): S-119/β-CD complex; for Stability constant (KS) / Complexation efficiency (CE) / Gibbs free energy of complexation (ΔGC0): 25 °C; for Complexation efficiency (CE): S-119/β-CD
Procedure: as §5, §6

[5] = Phase solubility study: equilibrium solubility of S-119 in buffers with excipients; type: physicochemical; conditions: for solubility enhancement vs pure buffer: pH 2.0
Procedure: as §5, §6

[6] = Micellar solubilization by non-ionic surfactants (solubilization capacity, micelle/water partition); conditions: F127; pH 7.4; 25 °C
Procedure: Moreover, the increase in the surfactant concentration can reduce the number of hydrogen binding sites available for the association of the compound and surfactant. At that point, the surfactant molecules interact with water, affect its structuring and hinder the interactions with positively charged species. […] To this end, the solubilization capacity (χ) representing the amount of the compound that can be solubilized by one mole of polymer was calculated using the following equation [53]:(4) χ=(S2−S20)/(Csurf−CMC) where S2 and S20 are the total solute solubility at a particular concentration of surfactant solution and the intrinsic solute solubility, respectively; Csurf is the surfactant concentration; CMC is the surfactant critical micelle concentration. All concentrations are expressed in molarity. Taking into account that above the CMC the concentration of surfactant monomers is equal to the CMC, the concentration of micelles can be determined as (Csurf − CMC). The CMC of Brij S20 and F127 were taken from the literature [54, 55, 56, 57]. […] Besides this, a micelle/water molar partition coefficient (Km/w) was derived using the following equation [58]:(5) Km/w=Sm/S20=(S2−S20)/S20
The favorable/unfavorable character of any process can be assessed using Gibbs free energy.

[7] = Complexation with α-CD (phase solubility, Higuchi and Connors); type: physicochemical; conditions: for Stability constant (KS): S-119/α-CD complex; for Stability constant (KS) / Complexation efficiency (CE) / Gibbs free energy of complexation (ΔGC0): 25 °C; for Complexation efficiency (CE): S-119/α-CD
Procedure: as §5, §6

[8] = cited from earlier work
[9] = In vitro permeability, Franz diffusion cell, PermeaPad barrier; type: in vitro ADME; conditions: for Papp at 5 h: read-out: Papp, PermeaPad (PP)
Procedure: as §1, §2, §3, §4

[10] = Complexation with O-M-β-CD (phase solubility, Higuchi and Connors); type: physicochemical; conditions: for Gibbs free energy of complexation (ΔGC0) / Stability constant (KS) / Complexation efficiency (CE): 25 °C; for Stability constant (KS): S-119/O-M-β-CD complex; for Complexation efficiency (CE): S-119/O-M-β-CD
Procedure: as §5, §6

[11] = cationic species of FCZ in acidic solution; second value, CD not printed (HP-β-CD assumed); cited from earlier work
[12] = donor: pure buffer pH 2.0; cited from earlier work
[13] = cationic species of FCZ in acidic solution; first value, CD not printed (β-CD assumed); cited from earlier work
[14] = cited from earlier work; remark: listed apart in the source
[15] = donor: 1.5 w/v% 6-O-M-β-CD in buffer pH 2.0, 37 °C
[16] = donor: 1.5 w/v% HP-β-CD in buffer pH 2.0, 37 °C
[17] = donor: 1.5 w/v% β-CD in buffer pH 2.0, 37 °C
[18] = donor: pure buffer pH 2.0, 37 °C
[19] = pH 2, donor: 1.5 w/v% 6-O-M-β-CD in buffer pH 2.0, 37 °C
[20] = pH 2, donor: 1.5 w/v% HP-β-CD in buffer pH 2.0, 37 °C
[21] = pH 2, donor: 1.5 w/v% β-CD in buffer pH 2.0, 37 °C
[22] = pH 2, donor: pure buffer pH 2.0, 37 °C

For `OC(CN1CCN(CC(O)(Cn2cncn2)c2ccc(F)cc2F)CC1)(Cn1cncn1)c1ccc(F)cc1F` (stereo not drawn) [S-119, 3,3′-(piperazine-1,4-diyl)bis(2-(2,4-difluorophenyl)-1-(1H-1,2,4-triazol-1-yl)propan-2-ol)], the “solubility in aqueous solutions” value ([1]; pH 2.0) is given as 4450 µM (≈ 2490 µg/mL), the “solubility in aqueous solutions” value ([1]; pH 7.4) is given as 40.1 µM (≈ 22.5 µg/mL) and the “permeability decrease vs pure buffer” value ([2]; RC membrane, 1.5 w/v% HP-β-CD donor solution, pH 2.0) is given as 1.87 fold. For the same molecule, the “flux J, Cellulose Membrane (RC)” value [2, 15] was 2.68 × 10^−5 µM∙cm^−2∙s^−1, the “flux J, Cellulose Membrane (RC)” value [2, 16] was 2.21 × 10^−5 µM∙cm^−2∙s^−1 and the “flux J, Cellulose Membrane (RC)” value [2, 17] was 2.90 × 10^−5 µM∙cm^−2∙s^−1. The “flux J, Cellulose Membrane (RC)” value [2, 18] was 3.49 × 10^−5 µM∙cm^−2∙s^−1, the Papp at 5 h [2, 19] was 23.1 ×10⁻⁶ cm/s and the Papp at 5 h [2, 20] was 14.5 ×10⁻⁶ cm/s. For the same molecule, the Papp at 5 h [2, 21] was 19.6 ×10⁻⁶ cm/s, the Papp at 5 h [2, 22] was 27.1 ×10⁻⁶ cm/s and the “phase solubility diagram type (Higuchi and Connors classification)” value (“phase solubility diagram type” below) ([3]; HP-β-CD, both pHs) was “AL-type”. For the same molecule, the “Gibbs free energy of complexation (ΔGC0)” value ([3]; HP-β-CD, pH 2.0) was -1.57 kcal/mol, the “complex stability relative to FCZ complex” value ([3]; HP-β-CD, pH 7.4) was 52 fold and the “Gibbs free energy of complexation (ΔGC0)” value ([3]; HP-β-CD, pH 7.4) was -4.577 kcal/mol. For the same molecule, the “Stability constant (KS)” value ([3]; pH 2.0) was 14.0 ± 0.6 M⁻¹, the “Stability constant (KS)” value ([3]; pH 7.4) was 2261.0 ± 79.0 M⁻¹ and the “Complexation efficiency (CE)” value ([3]; pH 2.0) was 6.2%. For the same molecule, the “Complexation efficiency (CE)” value ([3]; pH 7.4) was 9.1%, the “Stability constant (KS)” value ([4]; pH 2.0) was 27.4 ± 1.0 M⁻¹ and 27.4 M⁻¹ and the “Stability constant (KS)” value ([4]; pH 7.4) was 4424.9 ± 162.7 M⁻¹. The “Complexation efficiency (CE)” value ([4]; pH 2.0) was 12.2%, the “Complexation efficiency (CE)” value ([4]; pH 7.4) was 17.7% and the “phase solubility diagram type” value ([4]; β-CD, linear region 0 to 0.003 M CD) was “BS-type”. For the same molecule, the “Gibbs free energy of complexation (ΔGC0)” value ([4]; β-CD, pH 2.0) was -1.96 kcal/mol, the “complex stability relative to FCZ complex” value ([4]; β-CD, pH 7.4) was 47 fold and the “Gibbs free energy of complexation (ΔGC0)” value ([4]; β-CD, pH 7.4) was -4.974 kcal/mol. For the same molecule, the “solubility growth vs pure buffer” value ([5]; 0.0015 M β-CD, pH 7.4) was 6.8 fold, the “solubility growth vs pure buffer” value ([5]; 0.01 M HP-β-CD, pH 7.4) was 24 fold and the “solubility growth vs pure buffer” value ([5]; 0.07 M HP-β-CD, pH 7.4) was 151 fold. For the same molecule, the “solubility growth vs pure buffer” value ([5]; 20% PVP) was 232 fold, the “solubility enhancement vs pure buffer” value ([5]; 10 w/v% PEG 6000) was 1.45 fold and the “solubility enhancement vs pure buffer” value ([5]; 10 w/v% PEG 35000) was 1.20 fold. The “solubility enhancement vs pure buffer” value ([5]; 10 w/v% PVP) was 1.32 fold, the “growth of solubility vs pure buffer” value ([5]; pH 7.4, 10 w/v% Brij S20) was 199 fold and the “growth of solubility vs pure buffer” value ([5]; pH 7.4, 10 w/v% F-127) was 281 fold. The “extent of the solubilization vs pure buffer” value ([5]; pH 7.4, PEG 6000) was 193 fold, the “extent of the solubilization vs pure buffer” value ([5]; pH 7.4, PVP) was 232 fold and the “Gibbs free energy of micelle formation (ΔGm/w0)” value [6] was -6.205 kcal/mol. The “Stability constant (KS)” value ([7]; pH 2.0) was 5.0 ± 0.2 M⁻¹ and 5 M⁻¹, the “Stability constant (KS)” value ([7]; pH 7.4) was 304.4 ± 17 M⁻¹ and the “Complexation efficiency (CE)” value ([7]; pH 2.0) was 2.2%. For the same molecule, the “Complexation efficiency (CE)” value ([7]; pH 7.4) was 1.2%, the “phase solubility diagram type” value ([7]; α-CD, both pHs) was “AL-type” and the “Gibbs free energy of complexation (ΔGC0)” value ([7]; α-CD, pH 2.0) was -0.956 kcal/mol. For the same molecule, the “Gibbs free energy of complexation (ΔGC0)” value ([7]; α-CD, pH 7.4) was -3.387 kcal/mol, the “logD^oct” value [8] was 1.43 and the “permeability class (classification of di Cagno et al. for PermeaPad)” value ([9]; 1.5 w/v% CDs in donor solution, pH 2.0) was “low-medium permeability class”. The “permeability decrease vs pure buffer” value ([9]; PP barrier, 1.5 w/v% O-M-β-CD donor solution, pH 2.0) was 2.63 fold, the “permeability class (classification of di Cagno et al. for PermeaPad)” value ([9]; buffer pH 2.0) was “highly permeated substance” and the “flux J, PermeaPad (PP)” value [9, 15] was 1.01 × 10^−5 µM∙cm^−2∙s^−1. The “flux J, PermeaPad (PP)” value [9, 16] was 1.00 × 10^−5 µM∙cm^−2∙s^−1, the “flux J, PermeaPad (PP)” value [9, 17] was 9.93 × 10^−6 µM∙cm^−2∙s^−1 and the “flux J, PermeaPad (PP)” value [9, 18] was 2.20 × 10^−5 µM∙cm^−2∙s^−1. The Papp at 5 h [9, 19] was 5.62 ×10⁻⁶ cm/s, the Papp at 5 h [9, 20] was 7.81 ×10⁻⁶ cm/s and the Papp at 5 h [9, 21] was 6.12 ×10⁻⁶ cm/s. For the same molecule, the Papp at 5 h [9, 22] was 14.8 ×10⁻⁶ cm/s, the “phase solubility diagram type” value ([10]; O-M-β-CD, both pHs) was “AL-type” and the “Gibbs free energy of complexation (ΔGC0)” value ([10]; O-M-β-CD, pH 2.0) was -1.74 kcal/mol. The “Gibbs free energy of complexation (ΔGC0)” value ([10]; O-M-β-CD, pH 7.4) was -4.866 kcal/mol, the “Stability constant (KS)” value ([10]; pH 2.0) was 18.7 ± 0.7 M⁻¹ and the “Stability constant (KS)” value ([10]; pH 7.4) was 3693.4 ± 185.3 M⁻¹. The “Complexation efficiency (CE)” value ([10]; pH 2.0) was 8.3% and the “Complexation efficiency (CE)” value ([10]; pH 7.4) was 14.8%.
In the case of `OC(Cn1cncn1)(Cn1cncn1)c1ccc(F)cc1F` [FCZ, fluconazole], the “flux J, Cellulose Membrane (RC)” value ([2]; 5 h, pH 2) is given as 1.31 × 10^−4 µM∙cm^−2∙s^−1, the Papp at 5 h [2, 22] is given as 49 ×10⁻⁶ cm/s and the KS [11] is given as 13.5 M⁻¹. For the same molecule, the “Papp, PermeaPad (PP)” value [12] was “(1.74 ± 0.03) × 10^−5 cm∙s^−1”, the KS [13] was 10.7 M⁻¹ and the solubility growth ([14]; 0.0016 M aqueous β-CD solution) was 1.1 fold. The solubility increase ([14]; 0.004 M HP-β-CD) was 1.2 fold, the higher solubility ([14]; 0.08 M aqueous HP-β-CD) was 4 fold and the solubility enhancement ([14]; aqueous 0.02 M β-CD) was 1.84 fold. The “flux J, PermeaPad (PP)” value ([9]; 5 h, pH 2) was 3.50 × 10^−5 µM∙cm^−2∙s^−1.
